Laboratory results published in US20260022142A1, “MACROCYCLIC IMMUNOMODULATORS” (Bristol-Myers Squibb Company, priority 2022, published 2026).
Bridge positions count the residues as written; N and C are the ends. Square brackets hold non-standard residues; d marks the D form. Peptide text beside a SMILES is read from it. * marks the point of attachment. ξ: configuration not given here. Bip = N[C@@H](Cc1ccc(-c2ccccc2)cc1)C(=O)O; Phe(3-Me) = Cc1cccc(C[C@H](N)C(=O)O)c1; Cha = N[C@@H](CC1CCCCC1)C(=O)O; Cit = NC(=O)NCCC[C@H](N)C(=O)O; Thr(3ξ) = CC(O)[C@H](N)C(=O)O; Carboxymethyl = O=C(O)C*; Orn = NCCC[C@H](N)C(=O)O; Aun = NCCCCCCCCCCC(=O)O; Dab = NCC[C@H](N)C(=O)O; Dap = NC[C@H](N)C(=O)O; AEEA = NCCOCCOCC(=O)O

Target: T1, PD-1/PD-L1 interaction (PE-labeled human PD-L1-Ig binding to Jurkat cell line over-expressing human PD-1) (Homo sapiens, UniProt Q15116)
T1 construct: expressed in transfected cells; host or cells: Jurkat
T1 sequence (Q15116 25-288): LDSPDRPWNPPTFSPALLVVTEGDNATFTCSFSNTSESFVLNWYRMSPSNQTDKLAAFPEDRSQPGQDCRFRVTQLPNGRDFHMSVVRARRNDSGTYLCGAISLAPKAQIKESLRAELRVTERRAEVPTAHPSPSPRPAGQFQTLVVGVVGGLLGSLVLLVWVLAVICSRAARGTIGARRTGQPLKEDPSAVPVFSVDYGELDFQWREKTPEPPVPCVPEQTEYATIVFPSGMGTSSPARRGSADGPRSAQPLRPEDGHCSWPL
Test: Jurkat-PD-1 Cell Binding High-Content Screening Assay (CBA)
Type: cell-based
Settings: Jurkat cell line over-expressing human PD-1; PE-labeled PD-L1-Ig 20 nM final; read-out: Jurkat hPD1-PDL1 IC50
Summary of the method: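 Binding of fluorescent PD-L1-Ig (20 nM final) to Jurkat-PD-1 cells was measured by automated imaging after 1 h, following a 2 h compound pre-treatment at 37° C.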

SMILES | IC50 [nM]
Cc1cccc(C[C@@H]2NC(=O)[C@H](CC(=O)O)NC(=O)[C@H](Cc3ccc(OCC(=O)O)cc3)NC(=O)[C@H](CN)NC(=O)CSC[C@@H](C(=O)N[C@@H](CCN)C(=O)NCCOCCOCC(=O)NCCCCCCCCCCC(=O)O)NC(=O)[C@H](C(C)O)NC(=O)[C@H](C(C)C)NC(=O)[C@H](CC3CCCCC3)NC(=O)[C@H](CCN)NC(=O)[C@@H](CC(C)C)NC(=O)[C@H](CCCN)NC(=O)[C@H](C(C)C)NC(=O)[C@H](Cc3ccc(-c4ccccc4)cc3)NC(=O)[C@H](Cc3ccc(O)cc3)NC2=O)c1 (stereo partly drawn) [Compound 2581] ({CH2CO}-[Dap]Y(Carboxymethyl)D[Phe(3-Me)]Y[Bip]V[Orn][dL][Dab][Cha]V[Thr(3ξ)]C[Dab][AEEA][Aun]-OH; thioether N-14) | 21.4
Cc1cccc(C[C@@H]2NC(=O)[C@H](CC(=O)O)NC(=O)[C@H](Cc3ccc(OCC(=O)O)cc3)NC(=O)[C@H](CN)NC(=O)CSC[C@@H](C(=O)N[C@@H](CCN)C(=O)NCCOCCOCC(=O)NCCCCCCCCCCC(=O)O)NC(=O)[C@H](C(C)O)NC(=O)[C@H](Cc3ccc(O)cc3)NC(=O)[C@H](CC3CCCCC3)NC(=O)[C@H](CCN)NC(=O)[C@@H](CC(C)C)NC(=O)[C@H](CCCN)NC(=O)[C@H](CCCNC(N)=O)NC(=O)[C@H](Cc3ccc(-c4ccccc4)cc3)NC(=O)[C@H](C(C)C)NC2=O)c1 (stereo partly drawn) [Compound 2583] ({CH2CO}-[Dap]Y(Carboxymethyl)D[Phe(3-Me)]V[Bip][Cit][Orn][dL][Dab][Cha]Y[Thr(3ξ)]C[Dab][AEEA][Aun]-OH; thioether N-14) | 32.3
Cc1cccc(C[C@@H]2NC(=O)[C@H](CC(=O)O)NC(=O)[C@H](Cc3ccc(OCC(=O)O)cc3)NC(=O)[C@H](CN)NC(=O)CSC[C@@H](C(=O)N[C@@H](CCN)C(=O)NCCOCCOCC(=O)NCCCCCCCCCCC(=O)O)NC(=O)[C@H](CCCN)NC(=O)[C@H](Cc3ccc(O)cc3)NC(=O)[C@H](CC3CCCCC3)NC(=O)[C@H](CCN)NC(=O)[C@@H](CC(C)C)NC(=O)[C@H](CCCN)NC(=O)[C@H](CCCNC(N)=O)NC(=O)[C@H](Cc3ccc(-c4ccccc4)cc3)NC(=O)[C@H](C(C)C)NC2=O)c1 [Compound 2584] ({CH2CO}-[Dap]Y(Carboxymethyl)D[Phe(3-Me)]V[Bip][Cit][Orn][dL][Dab][Cha]Y[Orn]C[Dab][AEEA][Aun]-OH; thioether N-14) | 17.9
Cc1cccc(C[C@@H]2NC(=O)[C@H](CC(=O)O)NC(=O)[C@H](Cc3ccc(OCC(=O)O)cc3)NC(=O)[C@H](CN)NC(=O)CSC[C@@H](C(=O)N[C@@H](CCN)C(=O)NCCOCCOCC(=O)NCCCCCCCCCCC(=O)O)NC(=O)[C@H](C(C)O)NC(=O)[C@H](Cc3ccc(O)cc3)NC(=O)[C@H](CC3CCCCC3)NC(=O)[C@H](CCN)NC(=O)[C@@H](CC(C)C)NC(=O)[C@H](CCCN)NC(=O)[C@H](C(C)C)NC(=O)[C@H](Cc3ccc(-c4ccccc4)cc3)NC(=O)[C@H](C(C)C)NC2=O)c1 (stereo partly drawn) [Compound 2585] ({CH2CO}-[Dap]Y(Carboxymethyl)D[Phe(3-Me)]V[Bip]V[Orn][dL][Dab][Cha]Y[Thr(3ξ)]C[Dab][AEEA][Aun]-OH; thioether N-14) | 27
Cc1cccc(C[C@@H]2NC(=O)[C@H](CC(=O)O)NC(=O)[C@H](Cc3ccc(OCC(=O)O)cc3)NC(=O)[C@H](CN)NC(=O)CSC[C@@H](C(=O)N[C@@H](CCN)C(=O)NCCOCCOCC(=O)NCCCCCCCCCCC(=O)O)NC(=O)[C@H](CCCN)NC(=O)[C@H](Cc3ccc(O)cc3)NC(=O)[C@H](CC3CCCCC3)NC(=O)[C@H](CCN)NC(=O)[C@@H](CC(C)C)NC(=O)[C@H](CCCN)NC(=O)[C@H](C(C)C)NC(=O)[C@H](Cc3ccc(-c4ccccc4)cc3)NC(=O)[C@H](C(C)C)NC2=O)c1 [Compound 2586] ({CH2CO}-[Dap]Y(Carboxymethyl)D[Phe(3-Me)]V[Bip]V[Orn][dL][Dab][Cha]Y[Orn]C[Dab][AEEA][Aun]-OH; thioether N-14) | 22.2
Cc1cccc(C[C@@H]2NC(=O)[C@H](CC(=O)O)NC(=O)[C@H](Cc3ccc(OCC(=O)O)cc3)NC(=O)[C@H](CN)NC(=O)CSC[C@@H](C(=O)N[C@@H](CCCCN)C(=O)NCCCCCCCCCCC(=O)O)NC(=O)[C@H](C(C)O)NC(=O)[C@H](C(C)C)NC(=O)[C@H](CC3CCCCC3)NC(=O)[C@H](CCN)NC(=O)[C@@H](CC(C)C)NC(=O)[C@H](CCCN)NC(=O)[C@H](Cc3ccc(O)cc3)NC(=O)[C@H](Cc3ccc(-c4ccccc4)cc3)NC(=O)[C@H](C(C)C)NC2=O)c1 (stereo partly drawn) [Compound 2589] ({CH2CO}-[Dap]Y(Carboxymethyl)D[Phe(3-Me)]V[Bip]Y[Orn][dL][Dab][Cha]V[Thr(3ξ)]CK[Aun]-OH; thioether N-14) | 13.6

Compounds with a lower IC50, results first:

IC50 [nM] | SMILES
10.8 | Cc1cccc(C[C@@H]2NC(=O)[C@H](CC(=O)O)NC(=O)[C@H](Cc3ccc(OCC(=O)O)cc3)NC(=O)[C@H](CN)NC(=O)CSC[C@@H](C(=O)NCCOCCOCC(=O)N[C@@H](CCN)C(=O)NCCCCCCCCCCC(=O)O)NC(=O)[C@H](CCCN)NC(=O)[C@H](C(C)C)NC(=O)[C@H](CC3CCCCC3)NC(=O)[C@H](CCN)NC(=O)[C@@H](CC(C)C)NC(=O)[C@H](CCCN)NC(=O)[C@H](Cc3ccc(O)cc3)NC(=O)[C@H](Cc3ccc(-c4ccccc4)cc3)NC(=O)[C@H](C(C)C)NC2=O)c1 [Compound 2592] ({CH2CO}-[Dap]Y(Carboxymethyl)D[Phe(3-Me)]V[Bip]Y[Orn][dL][Dab][Cha]V[Orn]C[AEEA][Dab][Aun]-OH; thioether N-14)
9.5 | Cc1cccc(C[C@@H]2NC(=O)[C@H](CC(=O)O)NC(=O)[C@H](Cc3ccc(OCC(=O)O)cc3)NC(=O)[C@H](CN)NC(=O)CSC[C@@H](C(=O)N[C@@H](CCN)C(=O)NCCOCCOCC(=O)NCCCCCCCCCCC(=O)O)NC(=O)[C@H](CCCN)NC(=O)[C@H](C(C)C)NC(=O)[C@H](CC3CCCCC3)NC(=O)[C@H](CCN)NC(=O)[C@@H](CC(C)C)NC(=O)[C@H](CCCN)NC(=O)[C@H](C(C)C)NC(=O)[C@H](Cc3ccc(-c4ccccc4)cc3)NC(=O)[C@H](Cc3ccc(O)cc3)NC2=O)c1 [Compound 2582] ({CH2CO}-[Dap]Y(Carboxymethyl)D[Phe(3-Me)]Y[Bip]V[Orn][dL][Dab][Cha]V[Orn]C[Dab][AEEA][Aun]-OH; thioether N-14)
9.5 | Cc1cccc(C[C@@H]2NC(=O)[C@H](CC(=O)O)NC(=O)[C@H](Cc3ccc(OCC(=O)O)cc3)NC(=O)[C@H](CN)NC(=O)CSC[C@@H](C(=O)N[C@@H](CCCCN)C(=O)NCCCCCCCCCCC(=O)O)NC(=O)[C@H](CCCN)NC(=O)[C@H](C(C)C)NC(=O)[C@H](CC3CCCCC3)NC(=O)[C@H](CCN)NC(=O)[C@@H](CC(C)C)NC(=O)[C@H](CCCN)NC(=O)[C@H](Cc3ccc(O)cc3)NC(=O)[C@H](Cc3ccc(-c4ccccc4)cc3)NC(=O)[C@H](C(C)C)NC2=O)c1 [Compound 2590] ({CH2CO}-[Dap]Y(Carboxymethyl)D[Phe(3-Me)]V[Bip]Y[Orn][dL][Dab][Cha]V[Orn]CK[Aun]-OH; thioether N-14)
9.5 | Cc1cccc(C[C@@H]2NC(=O)[C@H](CC(=O)O)NC(=O)[C@H](Cc3ccc(OCC(=O)O)cc3)NC(=O)[C@H](CN)NC(=O)CSC[C@@H](C(=O)NCCOCCOCC(=O)N[C@@H](CCN)C(=O)NCCCCCCCCCCC(=O)O)NC(=O)[C@H](C(C)O)NC(=O)[C@H](C(C)C)NC(=O)[C@H](CC3CCCCC3)NC(=O)[C@H](CCN)NC(=O)[C@@H](CC(C)C)NC(=O)[C@H](CCCN)NC(=O)[C@H](Cc3ccc(O)cc3)NC(=O)[C@H](Cc3ccc(-c4ccccc4)cc3)NC(=O)[C@H](C(C)C)NC2=O)c1 (stereo partly drawn) [Compound 2591] ({CH2CO}-[Dap]Y(Carboxymethyl)D[Phe(3-Me)]V[Bip]Y[Orn][dL][Dab][Cha]V[Thr(3ξ)]C[AEEA][Dab][Aun]-OH; thioether N-14)
8.8 | Cc1cccc(C[C@@H]2NC(=O)[C@H](CC(=O)O)NC(=O)[C@H](Cc3ccc(OCC(=O)O)cc3)NC(=O)[C@H](CN)NC(=O)CSC[C@@H](C(=O)N[C@@H](CCN)C(=O)NCCOCCOCC(=O)NCCCCCCCCCCC(=O)O)NC(=O)[C@H](C(C)O)NC(=O)[C@H](C(C)C)NC(=O)[C@H](CC3CCCCC3)NC(=O)[C@H](CCN)NC(=O)[C@@H](CC(C)C)NC(=O)[C@H](CCCN)NC(=O)[C@H](Cc3ccc(O)cc3)NC(=O)[C@H](Cc3ccc(-c4ccccc4)cc3)NC(=O)[C@H](C(C)C)NC2=O)c1 (stereo partly drawn) [Compound 2587] ({CH2CO}-[Dap]Y(Carboxymethyl)D[Phe(3-Me)]V[Bip]Y[Orn][dL][Dab][Cha]V[Thr(3ξ)]C[Dab][AEEA][Aun]-OH; thioether N-14)
7.7 | Cc1cccc(C[C@@H]2NC(=O)[C@H](CC(=O)O)NC(=O)[C@H](Cc3ccc(OCC(=O)O)cc3)NC(=O)[C@H](CN)NC(=O)CSC[C@@H](C(=O)N[C@@H](CCN)C(=O)NCCOCCOCC(=O)NCCCCCCCCCCC(=O)O)NC(=O)[C@H](CCCN)NC(=O)[C@H](C(C)C)NC(=O)[C@H](CC3CCCCC3)NC(=O)[C@H](CCN)NC(=O)[C@@H](CC(C)C)NC(=O)[C@H](CCCN)NC(=O)[C@H](CCCNC(N)=O)NC(=O)[C@H](Cc3ccc(-c4ccccc4)cc3)NC(=O)[C@H](Cc3ccc(O)cc3)NC2=O)c1 [Compound 2580] ({CH2CO}-[Dap]Y(Carboxymethyl)D[Phe(3-Me)]Y[Bip][Cit][Orn][dL][Dab][Cha]V[Orn]C[Dab][AEEA][Aun]-OH; thioether N-14)
5.3 | Cc1cccc(C[C@@H]2NC(=O)[C@H](CC(=O)O)NC(=O)[C@H](Cc3ccc(OCC(=O)O)cc3)NC(=O)[C@H](CN)NC(=O)CSC[C@@H](C(=O)N[C@@H](CCN)C(=O)NCCOCCOCC(=O)NCCCCCCCCCCC(=O)O)NC(=O)[C@H](CCCN)NC(=O)[C@H](C(C)C)NC(=O)[C@H](CC3CCCCC3)NC(=O)[C@H](CCN)NC(=O)[C@@H](CC(C)C)NC(=O)[C@H](CCCN)NC(=O)[C@H](Cc3ccc(O)cc3)NC(=O)[C@H](Cc3ccc(-c4ccccc4)cc3)NC(=O)[C@H](C(C)C)NC2=O)c1 [Compound 2588] ({CH2CO}-[Dap]Y(Carboxymethyl)D[Phe(3-Me)]V[Bip]Y[Orn][dL][Dab][Cha]V[Orn]C[Dab][AEEA][Aun]-OH; thioether N-14)
